Patent US20060069132A1, “Azolecarboxamide herbicides” (priority 2004, published 2006)

Key:
common ragweed = assay: Test C pre-/postemergence herbicide test; assay type: in vivo, Ambrosia elatior; parameters: key to Plant response rating, Ragweed: 0 = no effect, 100 = complete control; conditions: for Plant response rating, Ragweed: visual, 12 to 14 days
In short: (§1)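 Seeds were planted and sprayed preemergence with test chemicals in a non-phytotoxic solvent mixture containing surfactant; postemergence treatments went onto plants 2 to 18 cm tall (1- to 4-leaf stage). After 12 to 14 days in a greenhouse, injury was rated visually against untreated controls on a 0–100 scale.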

[1] = test system: smallflower umbrella sedge; assay: Test C flooded paddy test; assay type: in vivo, Cyperus difformis
kochia = assay: Test C pre-/postemergence herbicide test; assay type: in vivo, Kochia scoparia; conditions: for Plant response rating, Kochia: visual, 12 to 14 days
In short: as §1

soybean = assay: Test C pre-/postemergence herbicide test; assay type: in vivo, Glycine max; conditions: for Plant response rating, Soybean: visual, 12 to 14 days
In short: as §1

corn = assay: Test C pre-/postemergence herbicide test; assay type: in vivo, Zea mays; conditions: for Plant response rating, Corn: visual, 12 to 14 days
In short: as §1

velvetleaf = assay: Test A pre-/postemergence herbicide test; assay type: in vivo, Abutilon theophrasti; conditions: for Velvetleaf plant response rating: Preemergence, visual rating, 0 to 100 scale (0 no effect, 100 complete control)
In short: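 Seeds sown in sandy loam received a preemergence directed soil spray of compound in non-phytotoxic solvent with surfactant; postemergence plants (2–10 cm, one- to two-leaf stage) were sprayed to runoff at the same time. After ~10 days in greenhouse, injury was rated visually versus untreated controls (0 = no effect, 100 = complete control).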

Surinam grass = assay: Test C pre-/postemergence herbicide test; assay type: in vivo, Urochloa decumbens; conditions: for Plant response rating, Surinam Grass: visual, 12 to 14 days
In short: as §1

barnyardgrass = assay: Test C flooded paddy test; assay type: in vivo, Echinochloa crus-galli
In short: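 Postemergence sprays applied to plants 2 to 18 cm tall (1- to 4-leaf stage); paddy species grown to 2-leaf stage under flooding. After 12 to 14 days in greenhouse, visual rating versus untreated controls on 0–100 scale (0 no effect, 100 complete control).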

morningglory = assay: Test C pre-/postemergence herbicide test; assay type: in vivo, Ipomoea coccinea; parameters: key to Plant response rating, Morningglory: 0 = no effect, 100 = complete control; conditions: for Plant response rating, Morningglory: visual, 12 to 14 days
In short: as §1

giant foxtail = assay: Test C pre-/postemergence herbicide test; assay type: in vivo, Setaria faberi; conditions: for Plant response rating, Foxtail, Giant: visual, 12 to 14 days
In short: as §1

rice = assay: Test C flooded paddy test; assay type: in vivo, Oryza sativa
In short: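 Injury scored visually against controls on a 0 (no effect) to 100 (complete control) scale, 12 to 14 days after treatment in greenhouse. Flooded paddy plants treated at 2-leaf stage; postemergence plants at 1- to 4-leaf stage, 2 to 18 cm tall.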

[2] = 125 g ai/ha, scale 0 (no effect) to 100 (complete control), preemergence
[3] = 250 g ai/ha, scale 0 to 100 (0 no effect, 100 complete control), preemergence
[4] = Preemergence, 500 g ai/ha, scale 0 to 100, 0 no effect, 100 complete control
[5] = 62 g ai/ha, scale 0 to 100 (0 no effect, 100 complete control)
[6] = 125 g ai/ha, scale of 0 to 100, 0 is no effect, 100 is complete control
[7] = 250 g ai/ha, scale of 0 to 100, 0 is no effect, 100 is complete control
[8] = 500 g ai/ha, visual rating after 12 to 14 days, scale 0 to 100 (0 no effect, 100 complete control)

## CCN1CCc2c(NC(=O)c3cc(C(C)(C)C)nn3CC)cccc2C1=O [Compound 63]
Common ragweed; 62 g ai/ha, preemergence
  Plant response rating (0 = no effect, 100 = complete control), Ragweed: 0
Common ragweed; [2]
  Plant response rating, Ragweed: 0
Common ragweed; [3]
  Plant response rating, Ragweed: 10
Common ragweed; [4]
  Ragweed plant response rating: 95
[1]; [5]
  Sedge, Umbrella plant response rating: 0
[1]; [6]
  Sedge, Umbrella plant response rating: 70
[1]; [7]
  Sedge, Umbrella plant response rating: 80
[1]; [8]
  Plant response rating, Sedge, Umbrella: 90
kochia; 62 g ai/ha, preemergence
  Plant response rating (0 = no effect, 100 = complete control), Kochia: 30
kochia; [2]
  Plant response rating, Kochia: 80
kochia; [3]
  Plant response rating, Kochia: 90
kochia; [4]
  Kochia plant response rating: 90
soybean; 62 g ai/ha, preemergence
  Plant response rating (0 = no effect, 100 = complete control), Soybean: 0
soybean; [2]
  Plant response rating, Soybean: 0
soybean; [3]
  Plant response rating, Soybean: 10
soybean; [4]
  Soybean plant response rating: 70
corn; 62 g ai/ha, preemergence
  Plant response rating (0 = no effect, 100 = complete control), Corn: 0
corn; [2]
  Plant response rating, Corn: 0
corn; [3]
  Plant response rating, Corn: 5
corn; [4]
  Corn plant response rating: 30
velvetleaf; Postemergence, 2000 g ai/ha, 0 to 100 scale, 0 no effect, 100 complete control
  Plant response rating, Velvetleaf: 55
velvetleaf; 500 g ai/ha
  Velvetleaf plant response rating: 20
velvetleaf; 2000 g ai/ha
  Velvetleaf plant response rating: 70
Surinam grass; 62 g ai/ha, preemergence
  Plant response rating (0 = no effect, 100 = complete control), Surinam Grass: 0
Surinam grass; [2]
  Plant response rating, Surinam Grass: 5
Surinam grass; [3]
  Plant response rating, Surinam Grass: 45
Surinam grass; [4]
  Surinam Grass plant response rating: 60
barnyardgrass; [5]
  Barnyardgrass plant response rating: 0
barnyardgrass; [6]
  Barnyardgrass plant response rating: 0
barnyardgrass; [7]
  Barnyardgrass plant response rating: 20
barnyardgrass; [8]
  Plant response rating, Barnyardgrass: 50
morningglory; 62 g ai/ha, preemergence
  Plant response rating (0 = no effect, 100 = complete control), Morningglory: 0
morningglory; [2]
  Plant response rating, Morningglory: 40
morningglory; [3]
  Plant response rating, Morningglory: 40
morningglory; [4]
  Morningglory plant response rating: 40
Giant foxtail; 62 g ai/ha, preemergence
  Plant response rating (0 = no effect, 100 = complete control), Foxtail, Giant: 0
Giant foxtail; [2]
  Plant response rating, Foxtail, Giant: 5
Giant foxtail; [3]
  Plant response rating, Foxtail, Giant: 10
Giant foxtail; [4]
  Foxtail, Giant plant response rating: 80
rice; [5]
  Rice plant response rating: 0
rice; [6]
  Rice plant response rating: 0
rice; [7]
  Rice plant response rating: 15
rice; [8]
  Plant response rating, Rice: 50
